Results: PubChem BioAssay AID248 (DTP/NCI, 2004)
Values joined by “and” are separate entries in the source; they are usually repeats but may differ in a detail not shown here. Equal entries are not always repeated. Toxic doses and inconclusive results are not listed.

System: L1210 leukemia ip in BDF1 mice, survival T/C
Assay: NCI In Vivo Anticancer Drug Screen. Data for tumor model L1210 Leukemia (intraperitoneal) in B6D2F1 (BDF1) mice
Conditions: endpoint: mean survival time, higher = longer survival
In short: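 Tumor was transplanted into mice, which were then dosed with test compound or vehicle alone. Survival was recorded for each group, and the treated figure was expressed relative to the control figure.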

[1] = dose: 100.0 mg/kg/injection, schedule: Q01DX009 (ip), vehicle: Klucel (hydroxypropylcellulose) (HPC)
[2] = dose: 100.0 mg/kg/injection, schedule: Q04DX003 (ip), vehicle: Klucel (hydroxypropylcellulose) (HPC)
[3] = dose: 200.0 mg/kg/injection, schedule: Q01DX009 (ip), vehicle: Klucel (hydroxypropylcellulose) (HPC)
[4] = dose: 200.0 mg/kg/injection, schedule: Q04DX003 (ip), vehicle: Klucel (hydroxypropylcellulose) (HPC)
[5] = dose: 400.0 mg/kg/injection, schedule: Q01DX009 (ip), vehicle: Klucel (hydroxypropylcellulose) (HPC)
[6] = dose: 400.0 mg/kg/injection, schedule: Q04DX003 (ip), vehicle: Klucel (hydroxypropylcellulose) (HPC)
[7] = dose: 100.0 mg/kg/injection, schedule: Q01DX001 (ip), vehicle: saline
[8] = dose: 200.0 mg/kg/injection, schedule: Q01DX001 (ip), vehicle: saline
[9] = dose: 400.0 mg/kg/injection, schedule: Q01DX001 (ip), vehicle: saline
[10] = dose: 100.0 mg/kg/injection, schedule: Q04DX002 (ip), vehicle: saline with Tween-80
[11] = dose: 200.0 mg/kg/injection, schedule: Q04DX002 (ip), vehicle: saline with Tween-80
[12] = dose: 400.0 mg/kg/injection, schedule: Q01DX001 (ip), vehicle: carboxymethylcellulose (CMC)
[13] = dose: 100.0 mg/kg/injection, schedule: Q01DX009 (ip), vehicle: saline with Tween-80
[14] = dose: 200.0 mg/kg/injection, schedule: Q01DX009 (ip), vehicle: saline with Tween-80
[15] = dose: 400.0 mg/kg/injection, schedule: Q01DX009 (ip), vehicle: saline with Tween-80

O=C1C=CC(=O)N1c1ccc(Cl)cc1 was tested, and the T/C (dose: 10.0 mg/kg/injection, schedule: Q01DX009 (ip), vehicle: Klucel (hydroxypropylcellulose) (HPC)) was 100 % of control, the T/C (dose: 10.0 mg/kg/injection, schedule: Q04DX003 (ip), vehicle: other) was 97 % of control and the T/C (dose: 20.0 mg/kg/injection, schedule: Q01DX009 (ip), vehicle: Klucel (hydroxypropylcellulose) (HPC)) was 88 % of control. The T/C (dose: 20.0 mg/kg/injection, schedule: Q04DX003 (ip), vehicle: other) was 95 % of control and the T/C (dose: 40.0 mg/kg/injection, schedule: Q04DX003 (ip), vehicle: other) was 95 % of control.

CCCNC(=NC)c1ccc(NC(=O)c2ccc(C(=O)Nc3ccc(C(=NC)NCCC)cc3)cc2)cc1 was tested, and the T/C (dose: 1.6 mg/kg/injection, schedule: Q01DX Z (ip), vehicle: saline) was 94 % of control, the T/C (dose: 2.4 mg/kg/injection, schedule: Q01DX Z (ip), vehicle: saline) was 111 % of control and the T/C (dose: 3.6 mg/kg/injection, schedule: Q01DX Z (ip), vehicle: saline) was 107 % of control and 120 % of control. The T/C (dose: 5.5 mg/kg/injection, schedule: Q01DX Z (ip), vehicle: saline) was 156 % of control and 162 % of control, the T/C (dose: 8.3 mg/kg/injection, schedule: Q01DX Z (ip), vehicle: saline) was 151 % of control and 172 % of control and the T/C (dose: 12.5 mg/kg/injection, schedule: Q## X000 (oral), vehicle: saline) was 103 % of control. The T/C (dose: 25.0 mg/kg/injection, schedule: Q## X000 (oral), vehicle: saline) was 100 % of control, the T/C (dose: 50.0 mg/kg/injection, schedule: Q## X000 (oral), vehicle: saline) was 101 % of control and the T/C (dose: 250.0 mg/kg/injection, schedule: Q01DX010 (oral), vehicle: saline) was 107 % of control. For the same compound, the T/C (dose: 500.0 mg/kg/injection, schedule: Q01DX010 (oral), vehicle: saline) was 114 % of control.

With CCc1ccc(NC(=O)Nc2cccc(Cl)c2)cc1 the T/C [1] was 92 % of control, the T/C [2] was 102 % of control and the T/C [3] was 89 % of control. For the same compound, the T/C [4] was 102 % of control, the T/C [5] was 99 % of control and the T/C [6] was 98 % of control.

In the case of O=C(Nc1ccc(C(=O)O)cc1)Nc1ccccc1Cl, the T/C (dose: 25.0 mg/kg/injection, schedule: Q04DX002 (ip), vehicle: saline) is reported as 106 % of control, the T/C (dose: 50.0 mg/kg/injection, schedule: Q04DX002 (ip), vehicle: saline) is reported as 100 % of control and the T/C (dose: 100.0 mg/kg/injection, schedule: Q04DX002 (ip), vehicle: saline + alcohol) is reported as 114 % of control. The T/C (dose: 100.0 mg/kg/injection, schedule: Q04DX002 (ip), vehicle: saline) was 118 % of control.

COC(=O)C12CCC1(Cl)CC2 (stereo not given) was tested, and the T/C [7] was 94 % of control, the T/C [8] was 95 % of control and the T/C [9] was 100 % of control.

In the case of Cc1c2oc3c(C)ccc(C(=O)NCCN4CCOCC4)c3nc-2c(C(=O)NCCN2CCOCC2)c(N)c1=O, the T/C [10] is reported as 98 % of control and the T/C [11] is reported as 92 % of control.

With O=C(/C(=N/O)c1ccccc1)c1ccccc1 the T/C (dose: 50.0 mg/kg/injection, schedule: Q01DX001 (ip), vehicle: other) was 103 % of control, the T/C (dose: 100.0 mg/kg/injection, schedule: Q01DX001 (ip), vehicle: other) was 97 % of control and the T/C (dose: 200.0 mg/kg/injection, schedule: Q01DX001 (ip), vehicle: other) was 105 % of control. The T/C (dose: 400.0 mg/kg/injection, schedule: Q01DX001 (ip), vehicle: other) was 100 % of control.

CC(C)N(C(=O)Nc1ccccc1Cl)c1ccccc1 was tested, and the T/C [1] was 96 % of control, the T/C [2] was 92 % of control and the T/C [3] was 92 % of control. The T/C [4] was 100 % of control, the T/C [5] was 97 % of control and the T/C [6] was 92 % of control.

C[N+](C)(C)C1CCCCCCC(=O)NC1 (stereo not given) was tested, and the T/C (dose: 75.0 mg/kg/injection, schedule: Q01DX009 (ip), vehicle: saline) was 101 % of control, the T/C (dose: 150.0 mg/kg/injection, schedule: Q01DX009 (ip), vehicle: saline) was 92 % of control and the T/C (dose: 300.0 mg/kg/injection, schedule: Q01DX009 (ip), vehicle: saline) was 109 % of control.

CC(=O)OC1c2ccccc2C2c3ccccc3C1C2Cl (stereo not given) was tested, and the T/C (dose: 176.0 mg/kg/injection, schedule: Q01DX001 (ip), vehicle: carboxymethylcellulose (CMC)) was 91 % of control, the T/C (dose: 264.0 mg/kg/injection, schedule: Q01DX001 (ip), vehicle: carboxymethylcellulose (CMC)) was 95 % of control and the T/C [12] was 92 % of control. The T/C (dose: 600.0 mg/kg/injection, schedule: Q01DX001 (ip), vehicle: carboxymethylcellulose (CMC)) was 89 % of control.

Cc1ccc([N+](=O)[O-])c(C)c1 was tested, and the T/C [1] was 92 % of control, the T/C [2] was 105 % of control and the T/C [3] was 96 % of control. For the same compound, the T/C [4] was 104 % of control, the T/C [5] was 102 % of control and the T/C [6] was 102 % of control.

c1ccc(CN2C3c4ccccc4C2c2ccccc23)cc1 was tested, and the T/C [7] was 96 % of control, the T/C [8] was 112 % of control and the T/C [9] was 95 % of control.

With CN(Cc1ccccc1)C(=O)NC1CCCCC1 the T/C (dose: 25.0 mg/kg/injection, schedule: Q01DX009 (ip), vehicle: saline) was 100 % of control and 101 % of control, the T/C (dose: 50.0 mg/kg/injection, schedule: Q01DX009 (ip), vehicle: saline) was 100 % of control and 101 % of control and the T/C [13] was 102 % of control. The T/C (dose: 100.0 mg/kg/injection, schedule: Q01DX009 (ip), vehicle: saline) was 97 % of control and 100 % of control, the T/C [10] was 94 % of control and 96 % of control and the T/C (dose: 100.0 mg/kg/injection, schedule: Q04DX003 (ip), vehicle: saline with Tween-80) was 101 % of control. For the same compound, the T/C [14] was 94 % of control and 105 % of control, the T/C (dose: 200.0 mg/kg/injection, schedule: Q01DX009 (ip), vehicle: saline) was 96 % of control and 97 % of control and the T/C [11] was 96 % of control and 100 % of control. The T/C (dose: 200.0 mg/kg/injection, schedule: Q04DX003 (ip), vehicle: saline with Tween-80) was 102 % of control, the T/C [15] was 95 % of control and 105 % of control and the T/C (dose: 400.0 mg/kg/injection, schedule: Q04DX002 (ip), vehicle: saline with Tween-80) was 100 % of control and 92 % of control. The T/C (dose: 400.0 mg/kg/injection, schedule: Q04DX003 (ip), vehicle: saline with Tween-80) was 95 % of control.

For Cc1ncc(CN2CSC(CCO)C2C)c(N)n1 (stereo not given), the T/C (dose: 100.0 mg/kg/injection, schedule: Q01DX001 (ip), vehicle: Klucel (hydroxypropylcellulose) (HPC)) was 95 % of control, the T/C (dose: 200.0 mg/kg/injection, schedule: Q01DX001 (ip), vehicle: Klucel (hydroxypropylcellulose) (HPC)) was 93 % of control and the T/C (dose: 400.0 mg/kg/injection, schedule: Q01DX001 (ip), vehicle: Klucel (hydroxypropylcellulose) (HPC)) was 93 % of control.

With N#Cc1ccc2c(c1)Nc1ccccc1S2 the T/C [1] was 101 % of control, the T/C [2] was 103 % of control and the T/C [3] was 99 % of control. For the same compound, the T/C [4] was 92 % of control, the T/C [5] was 89 % of control and the T/C [6] was 105 % of control.

O=C(O)CC1CCC2CC(O)c3cccc1c32 (stereo not given) was tested, and the T/C (dose: 100.0 mg/kg/injection, schedule: Q04DX003 (ip), vehicle: acetone) was 106 % of control, the T/C (dose: 200.0 mg/kg/injection, schedule: Q04DX003 (ip), vehicle: acetone) was 105 % of control and the T/C (dose: 400.0 mg/kg/injection, schedule: Q04DX003 (ip), vehicle: acetone) was 105 % of control.

CCN(CC)CCN=Cc1ccccc1OC was tested, and the T/C [7] was 98 % of control and the T/C [8] was 101 % of control.

CCOC(=O)C1CC1Cc1ccccc1 (stereo not given) was tested, and the T/C [13] was 101 % of control, the T/C (dose: 100.0 mg/kg/injection, schedule: Q04DX003 (ip), vehicle: saline) was 100 % of control and the T/C [14] was 102 % of control. The T/C (dose: 200.0 mg/kg/injection, schedule: Q04DX003 (ip), vehicle: saline) was 105 % of control, the T/C [15] was 104 % of control and the T/C (dose: 400.0 mg/kg/injection, schedule: Q04DX003 (ip), vehicle: saline) was 94 % of control.

In the case of COc1ccc(OC)c(NC(=O)c2ccc(Cl)cc2Cl)c1, the T/C [1] is reported as 95 % of control, the T/C [3] is reported as 93 % of control and the T/C [5] is reported as 95 % of control.

In the case of COC(=O)CCNS(=O)(=O)c1ccc(C)cc1, the T/C (dose: 50.0 mg/kg/injection, schedule: Q01DX001 (ip), vehicle: carboxymethylcellulose (CMC)) is reported as 92 % of control, the T/C (dose: 100.0 mg/kg/injection, schedule: Q01DX001 (ip), vehicle: carboxymethylcellulose (CMC)) is reported as 94 % of control and the T/C (dose: 200.0 mg/kg/injection, schedule: Q01DX001 (ip), vehicle: carboxymethylcellulose (CMC)) is reported as 94 % of control. The T/C [12] was 92 % of control.

In the case of O=C1N(Cl)C(=O)C(c2ccccc2)(c2ccc(F)cc2)N1Cl (stereo not given), the T/C (dose: 50.0 mg/kg/injection, schedule: Q01DX009 (ip), vehicle: Klucel (hydroxypropylcellulose) (HPC)) is reported as 94 % of control, the T/C [1] is reported as 94 % of control and the T/C [2] is reported as 96 % of control. For the same compound, the T/C [4] was 94 % of control.
